PubChem BioAssay AID330 (DTP/NCI, 2004)
Where “and” joins values, the source holds several entries; their conditions need not be identical. Equal entries are not always repeated. Inconclusive results and toxic doses are left out.

Test system: P388 leukemia ip, CD2F1 mice, survival T/C
Assay: NCI In Vivo Anticancer Drug Screen. Data for tumor model P388 Leukemia (intraperitoneal) in CD2F1 (CDF1) mice
Settings: endpoint: median survival time, higher = longer survival
In short: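 Mice carrying the transplanted tumor received test compound or vehicle. Survival was recorded in each group, and the value is the treated-group measurement divided by that of the vehicle-treated control group.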

[1] = dose: 50.0 mg/kg/injection, schedule: Q01DX009 (ip), vehicle: saline with Tween-80
[2] = dose: 100.0 mg/kg/injection, schedule: Q01DX009 (ip), vehicle: saline with Tween-80
[3] = dose: 200.0 mg/kg/injection, schedule: Q01DX009 (ip), vehicle: saline with Tween-80
[4] = dose: 60.0 mg/kg/injection, schedule: Q01DX005 (ip), vehicle: saline with Tween-80
[5] = dose: 120.0 mg/kg/injection, schedule: Q01DX005 (ip), vehicle: saline with Tween-80
[6] = dose: 240.0 mg/kg/injection, schedule: Q01DX005 (ip), vehicle: saline with Tween-80
[7] = dose: 3.12 mg/kg/injection, schedule: Q01DX009 (ip), vehicle: saline with Tween-80
[8] = dose: 6.25 mg/kg/injection, schedule: Q01DX009 (ip), vehicle: saline with Tween-80
[9] = dose: 12.5 mg/kg/injection, schedule: Q01DX009 (ip), vehicle: saline with Tween-80
[10] = dose: 100.0 mg/kg/injection, schedule: Q01DX001 (ip), vehicle: saline with Tween-80
[11] = dose: 200.0 mg/kg/injection, schedule: Q01DX001 (ip), vehicle: saline with Tween-80
[12] = dose: 400.0 mg/kg/injection, schedule: Q01DX001 (ip), vehicle: saline with Tween-80
[13] = dose: 50.0 mg/kg/injection, schedule: Q01DX009 (ip), vehicle: Klucel (hydroxypropylcellulose) (HPC)
[14] = dose: 100.0 mg/kg/injection, schedule: Q01DX009 (ip), vehicle: Klucel (hydroxypropylcellulose) (HPC)
[15] = dose: 200.0 mg/kg/injection, schedule: Q01DX009 (ip), vehicle: Klucel (hydroxypropylcellulose) (HPC)

[N-]=[N+]=[N-]
T/C (dose: 3.0 mg/kg/injection, schedule: Q01DX009 (ip), vehicle: saline with Tween-80): 100 % of control
T/C (dose: 6.0 mg/kg/injection, schedule: Q01DX009 (ip), vehicle: saline with Tween-80): 105 % of control

OCC(Cl)Cc1cnc[nH]1 (stereo unspecified)
T/C [1]: 102 % of control
T/C [2]: 99 % of control
T/C [3]: 93 % of control

CC(C)(C)C(=O)Nc1c(Cl)c(C2CC2)nn1-c1ccccc1
T/C [4]: 100 % of control
T/C [5]: 102 % of control
T/C [6]: 90 % of control

O=C(NC1C=Nc2ccc(Cl)cc2NC1=O)c1ccccc1Cl (stereo unspecified)
T/C [4]: 92 % of control
T/C [5]: 95 % of control
T/C [6]: 100 % of control

CN(C)c1ccccc1[Si](C)(C)N(C)C
T/C (dose: 60.0 mg/kg/injection, schedule: Q01DX005 (ip), vehicle: saline): 103 % of control
T/C (dose: 120.0 mg/kg/injection, schedule: Q01DX005 (ip), vehicle: saline): 103 % of control
T/C (dose: 240.0 mg/kg/injection, schedule: Q01DX005 (ip), vehicle: saline): 106 % of control

[Se]=P(c1ccccc1)(N1CCOCC1)N1CCOCC1
T/C (dose: 13.75 mg/kg/injection, schedule: Q01DX001 (ip), vehicle: Klucel (hydroxypropylcellulose) (HPC)): 96 % of control
T/C (dose: 27.5 mg/kg/injection, schedule: Q01DX001 (ip), vehicle: Klucel (hydroxypropylcellulose) (HPC)): 112 % of control

Cc1ccc(S(=O)(=O)C(=S)Sc2ccccc2)cc1
T/C [7]: 104 % of control
T/C [8]: 105 % of control
T/C (dose: 12.5 mg/kg/injection, schedule: Q01DX009 (ip), vehicle: alcohol): 104 % of control
T/C [9]: 109 % of control
T/C (dose: 25.0 mg/kg/injection, schedule: Q01DX009 (ip), vehicle: alcohol): 107 % of control
T/C (dose: 50.0 mg/kg/injection, schedule: Q01DX009 (ip), vehicle: alcohol): 107 % of control
T/C [1]: 123 % of control

CCOC(=O)Nc1c2ccccc2c(NC(=O)OCC)c2ccccc12
T/C (dose: 50.0 mg/kg/injection, schedule: Q01DX001 (ip), vehicle: saline with Tween-80): 105 % of control
T/C [10]: 100 % of control
T/C [11]: 102 % of control
T/C [12]: 96 % of control

Brc1ccc(C2=CSC3=NCCN23)cc1
T/C (dose: 1.56 mg/kg/injection, schedule: Q01DX009 (ip), vehicle: saline with Tween-80): 97 % of control
T/C [7]: 94 % of control
T/C [8]: 106 % of control and 114 % of control and 93 % of control
T/C [9]: 100 % of control and 103 % of control and 122 % of control
T/C (dose: 18.75 mg/kg/injection, schedule: Q01DX009 (ip), vehicle: saline with Tween-80): 93 % of control
T/C (dose: 25.0 mg/kg/injection, schedule: Q01DX009 (ip), vehicle: saline with Tween-80): 108 % of control and 113 % of control

CCN(CC)C(=O)c1cccc(COc2ccc(N3C(N)=NC(N)=NC3(C)C)cc2Cl)c1
T/C (dose: 50.0 mg/kg/injection, schedule: Q01DX009 (ip), vehicle: saline sonified): 90 % of control
T/C (dose: 50.0 mg/kg/injection, schedule: Q04DX003 (ip), vehicle: saline sonified): 109 % of control
T/C (dose: 100.0 mg/kg/injection, schedule: Q01DX009 (ip), vehicle: saline sonified): 109 % of control
T/C (dose: 100.0 mg/kg/injection, schedule: Q04DX003 (ip), vehicle: saline sonified): 100 % of control

COc1ccc(C2(C)C=C(C)C=C(C)C2=O)cc1 (stereo unspecified)
T/C [1]: 100 % of control
T/C [2]: 106 % of control
T/C [3]: 100 % of control

CC1C(O)C(O)CC2COCC21 (stereo unspecified)
T/C (dose: 37.5 mg/kg/injection, schedule: Q01DX001 (ip), vehicle: saline): 100 % of control
T/C (dose: 75.0 mg/kg/injection, schedule: Q01DX001 (ip), vehicle: saline): 100 % of control
T/C (dose: 150.0 mg/kg/injection, schedule: Q01DX001 (ip), vehicle: saline): 104 % of control

CCC(=O)Nc1ccc(C(=O)C(C)=O)cc1
T/C (dose: 8.0 mg/kg/injection, schedule: Q01DX009 (ip), vehicle: saline with Tween-80): 104 % of control
T/C (dose: 16.0 mg/kg/injection, schedule: Q01DX009 (ip), vehicle: saline with Tween-80): 104 % of control
T/C (dose: 32.0 mg/kg/injection, schedule: Q01DX009 (ip), vehicle: saline with Tween-80): 99 % of control

C=CCC(O)(C(F)(F)F)C(F)(F)F
T/C [1]: 105 % of control
T/C [2]: 103 % of control
T/C [3]: 115 % of control

O=C(O)c1cc2ccccc2c2c3c(ccc12)OCO3
T/C [4]: 95 % of control
T/C [5]: 100 % of control
T/C [6]: 100 % of control

COc1cccc2c(NCCCNCCCNc3c4ccccc4nc4c(OC)cccc34)c3ccccc3nc12
T/C (dose: 5.0 mg/kg/injection, schedule: Q01DX009 (ip), vehicle: other): 153 % of control
T/C (dose: 10.0 mg/kg/injection, schedule: Q01DX009 (ip), vehicle: other): 157 % of control

CC1(C)OCC(C(O)c2nc3ccccc3nc2C(=O)Nc2ccccc2N)O1 (stereo unspecified)
T/C [10]: 97 % of control
T/C [11]: 92 % of control
T/C [12]: 86 % of control

O=C1NC(O)c2cc(Cl)cc(Cl)c2O1 (stereo unspecified)
T/C (dose: 50.0 mg/kg/injection, schedule: Q01DX005 (ip), vehicle: Klucel (hydroxypropylcellulose) (HPC)): 102 % of control
T/C (dose: 100.0 mg/kg/injection, schedule: Q01DX005 (ip), vehicle: Klucel (hydroxypropylcellulose) (HPC)): 102 % of control
T/C (dose: 200.0 mg/kg/injection, schedule: Q01DX005 (ip), vehicle: Klucel (hydroxypropylcellulose) (HPC)): 115 % of control

CCCCCCCCCCCC1NC(=S)NC(=O)C1C#N (stereo unspecified)
T/C [13]: 95 % of control
T/C [14]: 93 % of control
T/C [15]: 92 % of control

CC(O)C(NC(=O)c1ccc([N+](=O)[O-])cc1)C(=O)O (stereo unspecified)
T/C (dose: 50.0 mg/kg/injection, schedule: Q01DX005 (ip), vehicle: saline): 105 % of control
T/C (dose: 100.0 mg/kg/injection, schedule: Q01DX005 (ip), vehicle: saline): 102 % of control
T/C (dose: 200.0 mg/kg/injection, schedule: Q01DX005 (ip), vehicle: saline): 91 % of control

CS1(C)=Nc2c([N+](=O)[O-])cc([N+](=O)[O-])cc2S(=O)(=O)N=1
T/C [4]: 98 % of control
T/C [5]: 94 % of control
T/C [6]: 94 % of control

Cc1cc(=O)oc2nn(CCO)c(C)c12
T/C [4]: 105 % of control
T/C [5]: 100 % of control
T/C [6]: 91 % of control

c1ccc(-c2nnn(CCCN3CCOCC3)n2)cc1
T/C (dose: 100.0 mg/kg/injection, schedule: Q01DX001 (ip), vehicle: Klucel (hydroxypropylcellulose) (HPC)): 100 % of control
T/C (dose: 200.0 mg/kg/injection, schedule: Q01DX001 (ip), vehicle: Klucel (hydroxypropylcellulose) (HPC)): 97 % of control
T/C (dose: 400.0 mg/kg/injection, schedule: Q01DX001 (ip), vehicle: Klucel (hydroxypropylcellulose) (HPC)): 102 % of control

CCOC(=O)CNC(=O)Nc1ccc(S(=O)(=O)Nc2nc(C)cc(C)n2)cc1
T/C [13]: 102 % of control
T/C [14]: 100 % of control
T/C [15]: 100 % of control

COC1=CC(=O)c2c(O)cc(OC)c(O)c2C1=O
T/C (dose: 1.25 mg/kg/injection, schedule: Q01DX009 (ip), vehicle: saline + alcohol): 104 % of control
T/C (dose: 1.25 mg/kg/injection, schedule: Q01DX009 (ip), vehicle: saline with Tween-80): 117 % of control
T/C (dose: 2.5 mg/kg/injection, schedule: Q01DX009 (ip), vehicle: saline + alcohol): 104 % of control
T/C (dose: 2.5 mg/kg/injection, schedule: Q01DX009 (ip), vehicle: saline with Tween-80): 115 % of control
T/C (dose: 5.0 mg/kg/injection, schedule: Q01DX009 (ip), vehicle: saline + alcohol): 104 % of control
T/C (dose: 5.0 mg/kg/injection, schedule: Q01DX009 (ip), vehicle: saline with Tween-80): 110 % of control
T/C (dose: 10.0 mg/kg/injection, schedule: Q01DX009 (ip), vehicle: saline + alcohol): 106 % of control
T/C (dose: 10.0 mg/kg/injection, schedule: Q01DX009 (ip), vehicle: saline with Tween-80): 110 % of control
T/C (dose: 20.0 mg/kg/injection, schedule: Q01DX009 (ip), vehicle: saline + alcohol): 106 % of control
T/C (dose: 20.0 mg/kg/injection, schedule: Q01DX009 (ip), vehicle: saline with Tween-80): 106 % of control

NC(=O)NC1CCCC1
T/C (dose: 100.0 mg/kg/injection, schedule: Q04DX003 (ip), vehicle: saline with Tween-80): 100 % of control
T/C (dose: 200.0 mg/kg/injection, schedule: Q04DX003 (ip), vehicle: saline with Tween-80): 100 % of control
T/C (dose: 400.0 mg/kg/injection, schedule: Q04DX003 (ip), vehicle: saline with Tween-80): 100 % of control
